Test results: patent publication US20170050957A1, “4-AMINO-6-(HETEROCYCLIC)PICOLINATES AND 6-AMINO-2-(HETEROCYCLIC)PYRIMIDINE-4-CARBOXYLATES AND THEIR USE AS HERBICIDES” (Dow AgroSciences LLC, priority 2013, published 2017)
Where two headings read alike, the source gives them in different places.

Experiments:
[1] = system: Key Broadleaf Weed and Crop Species; assay: Post-emergent Test II herbicidal activity (Table 15); assay type: in vivo; details: post-emergence, 336 h, 14 d; for pest or weed control at 35 g/ha: 35 g ai/ha; for pest or weed control at 70 g/ha: 70 g ai/ha; for pest or weed control at 140 g/ha: 140 g ai/ha
Procedure, shortened: (§1)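 Post-emergence spray; seedlings 7-21 d old, 1st-2nd true leaf; 187 L/ha; serial rates 1×-1/16×; solvent blank controls; subirrigated; visual % injury at 14 d.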

[2] = system: Key Grass and Sedge Weeds as well as Grass Crops; assay: Post-emergent Test II herbicidal activity (Table 16); assay type: in vivo; details: post-emergence, 336 h; for pest or weed control at 35 g/ha: 35 g ai/ha; for pest or weed control at 70 g/ha: 70 g ai/ha; for pest or weed control at 140 g/ha: 140 g ai/ha
Procedure, shortened: as §1

[3] = Abutilon theophrasti, velvetleaf (Abutilon theophrasti), read-out: Visual Growth Reduction (%) 14 Days After Application, ABUTH
[4] = Amaranthus retroflexus, redroot pigweed (Amaranthus retroflexus), read-out: Visual Growth Reduction (%) 14 Days After Application, AMARE
[5] = Brassica napus, oilseed rape, canola (Brassica napus), read-out: Visual Growth Reduction (%) 14 Days After Application, BRSNN
[6] = Chenopodium album, lambsquarters (Chenopodium album), read-out: Visual Growth Reduction (%) 14 Days After Application, CHEAL
[7] = Euphorbia heterophylla, wild poinsettia (Euphorbia heterophylla), read-out: Visual Growth Reduction (%) 14 Days After Application, EPHHL
[8] = Helianthus annuus, sunflower (Helianthus annuus), read-out: Visual Growth Reduction (%) 14 Days After Application, HELAN
[9] = Cyperus esculentus, yellow nutsedge (Cyperus esculentus), 14 d, read-out: Visual Growth Reduction (%) 14 Days After Application, CYPES
[10] = Echinochloa crus-galli, barnyardgrass (Echinochloa crus-galli), 14 d, read-out: Visual Growth Reduction (%) 14 Days After Application, ECHCG
[11] = Oryza sativa, rice (Oryza sativa), 14 d, read-out: Visual Growth Reduction (%) 14 Days After Application, ORYSA
[12] = Setaria faberi, giant foxtail (Setaria faberi), 14 d, read-out: Visual Growth Reduction (%) 14 Days After Application, SETFA
[13] = Triticum aestivum, wheat, spring (Triticum aestivum), 14 d, read-out: Visual Growth Reduction (%) 14 Days After Application, TRZAS
[14] = Zea mays, maize, corn (Zea mays), 14 d, read-out: Visual Growth Reduction (%) 14 Days After Application, ZEAMX
[15] = Cyperus esculentus, yellow nutsedge (Cyperus esculentus), 14 days after application, read-out: Visual Growth Reduction (%) 14 Days After Application CYPES
[16] = Echinochloa crus-galli, barnyardgrass (Echinochloa crus-galli), 14 days after application, read-out: Visual Growth Reduction (%) 14 Days After Application ECHCG
[17] = Oryza sativa, rice (Oryza sativa), 14 days after application, read-out: Visual Growth Reduction (%) 14 Days After Application ORYSA
[18] = Setaria faberi, giant foxtail (Setaria faberi), 14 days after application, read-out: Visual Growth Reduction (%) 14 Days After Application SETFA
[19] = Triticum aestivum, wheat, spring (Triticum aestivum), 14 days after application, read-out: Visual Growth Reduction (%) 14 Days After Application TRZAS
[20] = Zea mays, maize, corn (Zea mays), 14 days after application, read-out: Visual Growth Reduction (%) 14 Days After Application ZEAMX

Row | Structure (SMILES) | pest or weed control at 35 g/ha [1, 3] [%] | pest or weed control at 70 g/ha [1, 3] [%] | pest or weed control at 140 g/ha [1, 3] [%] | pest or weed control at 35 g/ha [1, 4] [%] | pest or weed control at 70 g/ha [1, 4] [%] | pest or weed control at 140 g/ha [1, 4] [%] | pest or weed control at 35 g/ha [1, 5] [%] | pest or weed control at 70 g/ha [1, 5] [%] | pest or weed control at 140 g/ha [1, 5] [%] | pest or weed control at 35 g/ha [1, 6] [%] | pest or weed control at 70 g/ha [1, 6] [%] | pest or weed control at 140 g/ha [1, 6] [%] | pest or weed control at 35 g/ha [1, 7] [%] | pest or weed control at 70 g/ha [1, 7] [%] | pest or weed control at 140 g/ha [1, 7] [%] | pest or weed control at 35 g/ha [1, 8] [%] | pest or weed control at 70 g/ha [1, 8] [%] | pest or weed control at 140 g/ha [1, 8] [%] | also measured
1 | COC(=O)c1nc(-c2ccc(Cl)c3cc[nH]c23)c(F)c(N)c1Cl [Compound 1.46] | 0 to 29 | 0 to 29 | 0 to 29 | 0 to 29 | 0 to 29 | 60 to 74 | 0 to 29 | 0 to 29 | 0 to 29 | 75 to 84 | 85 to 94 | 95 to 100 | 0 to 29 | 0 to 29 | 0 to 29 | 0 to 29 | 30 to 44 | 45 to 59 | pest or weed control at 35 g/ha [2, 9]: 0 to 29%; pest or weed control at 70 g/ha [2, 9]: 0 to 29%; pest or weed control at 140 g/ha [2, 9]: 0 to 29%; pest or weed control at 35 g/ha [2, 10]: 0 to 29%; pest or weed control at 70 g/ha [2, 10]: 0 to 29%; pest or weed control at 140 g/ha [2, 10]: 0 to 29%; pest or weed control at 35 g/ha [2, 11]: 0 to 29%; pest or weed control at 70 g/ha [2, 11]: 0 to 29%; pest or weed control at 140 g/ha [2, 11]: 0 to 29%; pest or weed control at 35 g/ha [2, 12]: 0 to 29%; pest or weed control at 70 g/ha [2, 12]: 0 to 29%; pest or weed control at 140 g/ha [2, 12]: 0 to 29%; pest or weed control at 35 g/ha [2, 13]: 0 to 29%; pest or weed control at 70 g/ha [2, 13]: 0 to 29%; pest or weed control at 140 g/ha [2, 13]: 0 to 29%; pest or weed control at 35 g/ha [2, 14]: 0 to 29%; pest or weed control at 70 g/ha [2, 14]: 0 to 29%; pest or weed control at 140 g/ha [2, 14]: 0 to 29%
2 | COC(=O)c1nc(-c2ccc3ccsc3c2)cc(N)c1Cl [Compound 3.15] | 85 to 94 | 95 to 100 | 95 to 100 | 95 to 100 | 95 to 100 | 95 to 100 | 30 to 44 | 45 to 59 | 45 to 59 | 85 to 94 | 85 to 94 | 95 to 100 | 75 to 84 | 75 to 84 | 85 to 94 | 60 to 74 | 60 to 74 | 85 to 94 | pest or weed control at 35 g/ha [2, 15]: 0 to 29%; pest or weed control at 70 g/ha [2, 15]: 0 to 29%; pest or weed control at 140 g/ha [2, 15]: 0 to 29%; pest or weed control at 35 g/ha [2, 16]: 75 to 84%; pest or weed control at 70 g/ha [2, 16]: 75 to 84%; pest or weed control at 140 g/ha [2, 16]: 95 to 100%; pest or weed control at 35 g/ha [2, 17]: 0 to 29%; pest or weed control at 70 g/ha [2, 17]: 0 to 29%; pest or weed control at 140 g/ha [2, 17]: 0 to 29%; pest or weed control at 35 g/ha [2, 18]: 0 to 29%; pest or weed control at 70 g/ha [2, 18]: 0 to 29%; pest or weed control at 140 g/ha [2, 18]: 0 to 29%; pest or weed control at 35 g/ha [2, 19]: 0 to 29%; pest or weed control at 70 g/ha [2, 19]: 0 to 29%; pest or weed control at 140 g/ha [2, 19]: 0 to 29%; pest or weed control at 35 g/ha [2, 20]: 60 to 74%; pest or weed control at 70 g/ha [2, 20]: 60 to 74%; pest or weed control at 140 g/ha [2, 20]: 60 to 74%
